Measured values from ChEMBL document CHEMBL1629435, “Novel insights into the use of Glowing LNA as nucleic acid detection probes--influence of labeling density and nucleobases” (Bioorg Med Chem Lett, 2010).

What was measured:
Assay type in all cases: nucleic-acid assay
Nucleic Acid [1] = assay: Binding affinity to AAA TAT ATA GTG C DNA sequence assessed as melting temperature by thermal denaturation assay
Nucleic Acid [2] = assay: Binding affinity to AAA UAU AUA GUG C RNA sequence assessed as melting temperature by thermal denaturation assay
Nucleic Acid [3] = assay: Binding affinity to AAA TAT ATA GTG C DNA sequence assessed as change in melting temperature by thermal denaturation assay
Nucleic Acid [4] = assay: Binding affinity to AAA UAU AUA GUG C RNA sequence assessed as change in melting temperature by thermal denaturation assay
Nucleic Acid [5] = assay: Binding affinity to AAA TAT ATA GTG DNA sequence by fluorescence emission spectrum analysis
Nucleic Acid [6] = assay: Binding affinity to AAA UAU AUA GUG C RNA sequence by fluorescence emission spectrum analysis
Nucleic Acid [7] = assay: Binding affinity to CGT AGA GTG DNA sequence assessed as melting temperature by thermal denaturation assay
Nucleic Acid [8] = assay: Binding affinity to CGU AGA GUG RNA sequence assessed as melting temperature by thermal denaturation assay
Nucleic Acid [9] = assay: Binding affinity to CGT AGA GTG DNA sequence assessed as change in melting temperature by thermal denaturation assay
Nucleic Acid [10] = assay: Binding affinity to CGU AGA GUG RNA sequence assessed as change in melting temperature by thermal denaturation assay
Nucleic Acid [11] = assay: Binding affinity to CGT AAA GTG DNA sequence assessed as change in melting temperature by thermal denaturation assay
Nucleic Acid [12] = assay: Binding affinity to CGT ACA GTG DNA sequence assessed as change in melting temperature by thermal denaturation assay
Nucleic Acid [13] = assay: Binding affinity to CGT ATA GTG DNA sequence assessed as change in melting temperature by thermal denaturation assay
Nucleic Acid [14] = assay: Binding affinity to CGU AAA GUG RNA sequence assessed as change in melting temperature by thermal denaturation assay
Nucleic Acid [15] = assay: Binding affinity to CGU ACA GUG RNA sequence assessed as change in melting temperature by thermal denaturation assay
Nucleic Acid [16] = assay: Binding affinity to CGU AUA GUG RNA sequence assessed as change in melting temperature by thermal denaturation assay

| Tm (Nucleic Acid [1]) | Tm (Nucleic Acid [2]) | ΔTm (Nucleic Acid [3]) | ΔTm (Nucleic Acid [4]) | fold change (FC) (Nucleic Acid [5]) | fold change (FC) (Nucleic Acid [6]) | Tm (Nucleic Acid [7]) | Tm (Nucleic Acid [8]) | ΔTm (Nucleic Acid [9]) | ΔTm (Nucleic Acid [10]) | ΔTm (Nucleic Acid [11]) | ΔTm (Nucleic Acid [12]) | ΔTm (Nucleic Acid [13]) | ΔTm (Nucleic Acid [14]) | ΔTm (Nucleic Acid [15]) | ΔTm (Nucleic Acid [16]) | Structure (SMILES) |
| --- | --- | --- | --- | --- | --- | --- | --- | --- | --- | --- | --- | --- | --- | --- | --- | --- |
| 46.5 °C | 48 °C | 6.5 °C | 8 °C | 3.5 | 3.5 |  |  |  |  |  |  |  |  |  |  | Cc1cn([C@@H]2O[C@@]3(COP(=O)(O)O[C@H]4[C@@H](O)[C@H](n5cnc6c(N)ncnc65)O[C@@H]4COP(=O)(O)O[C@H]4[C@@H]5[C@H](n6cc(C)c(=O)[nH]c6=O)O[C@@]4(COP(=O)(O)O[C@H]4C[C@H](n6cc(C)c(=O)[nH]c6=O)O[C@@H]4COP(=O)(O)O[C@H]4C[C@H](n6cc(C)c(=O)[nH]c6=O)O[C@@H]4COP(=O)(O)O)CN5C(=O)c4ccc5ccc6cccc7ccc4c5c67)CN(C(=O)c4ccc5ccc6cccc7ccc4c5c67)[C@@H]2[C@@H]3OP(=O)(O)OC[C@H]2O[C@@H](n3cnc4c(N)ncnc43)[C@H](O)[C@@H]2OP(=O)(O)OC[C@H]2O[C@@H](n3cc(C)c(=O)[nH]c3=O)C[C@@H]2OP(=O)(O)OC[C@H]2O[C@@H](n3cnc4c(N)ncnc43)[C@H](O)[C@@H]2OP(=O)(O)OC[C@H]2O[C@@H](n3cc(C)c(=O)[nH]c3=O)C[C@@H]2OP(=O)(O)OC[C@H]2O[C@@H](n3ccc(N)nc3=O)[C@H](O)[C@@H]2OP(=O)(O)OC[C@H]2O[C@@H](n3cnc4c(N)ncnc43)[C@H](O)[C@@H]2OP(=O)(O)OC[C@H]2O[C@@H](n3ccc(N)nc3=O)[C@H](O)[C@@H]2OP(=O)(O)OC[C@H]2O[C@@H](n3cnc4c(=O)[nH]c(N)nc43)[C@H](O)[C@@H]2O)c(=O)[nH]c1=O |
|  |  |  |  |  |  | 37 °C | 40 °C | 2.5 °C | 3.5 °C |  |  |  |  |  |  | Cc1cn([C@@H]2O[C@@]3(COP(=O)(O)O[C@H]4C[C@H](n5cc(C)c(=O)[nH]c5=O)O[C@@H]4COP(=O)(O)O[C@H]4[C@@H](O)[C@H](n5ccc(N)nc5=O)O[C@@H]4COP(=O)(O)O[C@H]4C[C@H](n5cc(C)c(=O)[nH]c5=O)O[C@@H]4COP(=O)(O)O[C@H]4[C@@H](O)[C@H](n5cnc6c(N)ncnc65)O[C@@H]4COP(=O)(O)O[C@H]4[C@@H](O)[C@H](n5ccc(N)nc5=O)O[C@@H]4COP(=O)(O)O[C@H]4[C@@H](O)[C@H](n5cnc6c(=O)[nH]c(N)nc65)O[C@@H]4COP(=O)(O)O)CN(C(=O)c4ccc5ccc6cccc7ccc4c5c67)[C@@H]2[C@@H]3OP(=O)(O)OC[C@H]2O[C@@H](n3cnc4c(N)ncnc43)[C@H](O)[C@@H]2OP(=O)(O)OC[C@H]2O[C@@H](n3ccc(N)nc3=O)[C@H](O)[C@@H]2O)c(=O)nc1N |
|  |  |  |  | 3.6 | 3.6 | 45 °C | 47 °C | 5.5 °C | 5.5 °C | -27 °C | -30 °C | -32.5 °C |  |  |  | Cc1cn([C@@H]2O[C@@]3(COP(=O)(O)O[C@H]4[C@@H](O)[C@H](n5cnc6c(=O)[nH]c(N)nc65)O[C@@H]4COP(=O)(O)O)CN(C(=O)c4ccc5ccc6cccc7ccc4c5c67)[C@@H]2[C@@H]3OP(=O)(O)OC[C@H]2O[C@@H](n3cnc4c(N)ncnc43)[C@H](O)[C@@H]2OP(=O)(O)OC[C@H]2O[C@@H](n3cc(C)c(=O)[nH]c3=O)C[C@@H]2OP(=O)(O)OC[C@@]23CN(C(=O)c4ccc5ccc6cccc7ccc4c5c67)[C@@H]([C@H](n4cc(C)c(N)nc4=O)O2)[C@@H]3OP(=O)(O)OC[C@H]2O[C@@H](n3cc(C)c(=O)[nH]c3=O)C[C@@H]2OP(=O)(O)OC[C@H]2O[C@@H](n3ccc(N)nc3=O)[C@H](O)[C@@H]2OP(=O)(O)OC[C@H]2O[C@@H](n3cnc4c(N)ncnc43)[C@H](O)[C@@H]2OP(=O)(O)OC[C@H]2O[C@@H](n3ccc(N)nc3=O)[C@H](O)[C@@H]2O)c(=O)nc1N |
|  |  |  |  | 3.6 | 3.6 | 43 °C | 52.5 °C | 4.5 °C | 8 °C | -27 °C | -30 °C | -30 °C |  |  |  | Cc1cn([C@@H]2O[C@@]3(COP(=O)(O)O[C@H]4C[C@H](n5cc(C)c(=O)[nH]c5=O)O[C@@H]4COP(=O)(O)O[C@H]4[C@@H]5[C@H](n6cc(C)c(N)nc6=O)O[C@@]4(COP(=O)(O)O[C@H]4C[C@H](n6cc(C)c(=O)[nH]c6=O)O[C@@H]4COP(=O)(O)O[C@H]4[C@@H](O)[C@H](n6cnc7c(N)ncnc76)O[C@@H]4COP(=O)(O)O[C@H]4[C@@H](O)[C@H](n6ccc(N)nc6=O)O[C@@H]4COP(=O)(O)O[C@H]4[C@@H](O)[C@H](n6cnc7c(=O)[nH]c(N)nc76)O[C@@H]4COP(=O)(O)O)CN5C(=O)c4ccc5ccc6cccc7ccc4c5c67)CN(C(=O)c4ccc5ccc6cccc7ccc4c5c67)[C@@H]2[C@@H]3OP(=O)(O)OC[C@H]2O[C@@H](n3cnc4c(N)ncnc43)[C@H](O)[C@@H]2OP(=O)(O)OC[C@H]2O[C@@H](n3ccc(N)nc3=O)[C@H](O)[C@@H]2O)c(=O)nc1N |
|  |  |  |  | 3.6 | 3.6 | 49.5 °C | 62 °C | 5 °C | 8.5 °C | -27 °C | -31 °C | -31.5 °C |  |  |  | Cc1cn([C@@H]2O[C@@]3(COP(=O)(O)O[C@H]4[C@@H](O)[C@H](n5cnc6c(=O)[nH]c(N)nc65)O[C@@H]4COP(=O)(O)O)CN(C(=O)c4ccc5ccc6cccc7ccc4c5c67)[C@@H]2[C@@H]3OP(=O)(O)OC[C@H]2O[C@@H](n3cnc4c(N)ncnc43)[C@H](O)[C@@H]2OP(=O)(O)OC[C@H]2O[C@@H](n3cc(C)c(=O)[nH]c3=O)C[C@@H]2OP(=O)(O)OC[C@@]23CN(C(=O)c4ccc5ccc6cccc7ccc4c5c67)[C@@H]([C@H](n4cc(C)c(N)nc4=O)O2)[C@@H]3OP(=O)(O)OC[C@H]2O[C@@H](n3cc(C)c(=O)[nH]c3=O)C[C@@H]2OP(=O)(O)OC[C@@]23CN(C(=O)c4ccc5ccc6cccc7ccc4c5c67)[C@@H]([C@H](n4cc(C)c(N)nc4=O)O2)[C@@H]3OP(=O)(O)OC[C@H]2O[C@@H](n3cnc4c(N)ncnc43)[C@H](O)[C@@H]2OP(=O)(O)OC[C@H]2O[C@@H](n3ccc(N)nc3=O)[C@H](O)[C@@H]2O)c(=O)nc1N |
|  |  |  |  |  |  | 34.5 °C | 36.5 °C |  |  | < -24.5 °C | < -24.5 °C | -21.5 °C | -23.5 °C | < -26.5 °C | < -26.5 °C | Cc1cn([C@H]2C[C@H](OP(=O)(O)OC[C@H]3O[C@@H](n4ccc(N)nc4=O)[C@H](O)[C@@H]3OP(=O)(O)OC[C@H]3O[C@@H](n4cnc5c(N)ncnc54)[C@H](O)[C@@H]3OP(=O)(O)OC[C@H]3O[C@@H](n4ccc(N)nc4=O)[C@H](O)[C@@H]3O)[C@@H](COP(=O)(O)O[C@H]3[C@@H](O)[C@H](n4ccc(N)nc4=O)O[C@@H]3COP(=O)(O)O[C@H]3C[C@H](n4cc(C)c(=O)[nH]c4=O)O[C@@H]3COP(=O)(O)O[C@H]3[C@@H](O)[C@H](n4cnc5c(N)ncnc54)O[C@@H]3COP(=O)(O)O[C@H]3[C@@H](O)[C@H](n4ccc(N)nc4=O)O[C@@H]3COP(=O)(O)O[C@H]3[C@@H](O)[C@H](n4cnc5c(=O)[nH]c(N)nc54)O[C@@H]3COP(=O)(O)O)O2)c(=O)[nH]c1=O |
| 45.5 °C | 46.5 °C | 6 °C | 7 °C | 3.5 | 3.5 |  |  |  |  |  |  |  |  |  |  | Cc1cn([C@@H]2O[C@@]3(COP(=O)(O)O[C@H]4C[C@H](n5cnc6c(N)ncnc65)O[C@@H]4COP(=O)(O)O[C@H]4C[C@H](n5cnc6c(=O)[nH]c(N)nc65)O[C@@H]4COP(=O)(O)O[C@H]4[C@H]5OC[C@]4(COP(=O)(O)O[C@H]4C[C@H](n6cnc7c(=O)[nH]c(N)nc76)O[C@@H]4CO)O[C@H]5n4cc(C)c(=O)[nH]c4=O)CO[C@@H]2[C@@H]3OP(=O)(O)OC[C@H]2O[C@@H](n3cnc4c(N)ncnc43)C[C@@H]2OP(=O)(O)OC[C@@]23CO[C@@H]([C@H](n4cc(C)c(=O)[nH]c4=O)O2)[C@@H]3OP(=O)(O)OC[C@H]2O[C@@H](n3cnc4c(=O)[nH]c(N)nc43)C[C@@H]2OP(=O)(O)OC[C@H]2O[C@@H](n3ccc(N)nc3=O)C[C@@H]2O)c(=O)[nH]c1=O |
